What was measured:
Test in all cases: relative viability (nuclei count vs DMSO), 5 days (fraction); higher = more cells survive
[1] = compound: CCc1c2c(nc3ccc(OC(=O)N4CCC(N5CCCCC5)CC4)cc13)-c1cc3c(c(=O)n1C2)COC(=O)[C@]3(O)CC [Irinotecan] + N=C(N)NC(=N)NCCc1ccccc1 [Phenformin] (partner 250 µM)
How it was run: (§1)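 For relative viability, nuclei counts in treated wells were divided by those in vehicle wells. Lung cancer cell lines had been pin-tool dosed in 1536-well plates the day after seeding and cultured for 5 days, then fixed and stained in one step (final 0.05% Triton X-100, 1% formaldehyde, 1 ug/ml Hoechst) and imaged at 4×. Doses were one drug alone or a fixed anchor-drug dose plus five library-drug doses (not always all listed) in √10 steps, and values are duplicate-plate medians.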

[2] = compound: Cn1cc(-c2cnc3ccc4ccc(CS(=O)(=O)NCc5ccccn5)cc4c(=O)c3c2)cn1 [MK-8033] + N=C(N)NC(=N)NCCc1ccccc1 [Phenformin] (partner 250 µM)
How it was run: as §1

[3] = compound: CC[C@@H](C)CNCC(=O)N1CCC2=C([C@@H]1COC3=CC=CC(=C3)C)C=CS2 [RU-SKI 43] + CC(=O)c1c(C)c2cnc(Nc3ccc(N4CCNCC4)cn3)nc2n(C2CCCC2)c1=O [Palbociclib] (partner 0.5 µM)
How it was run: as §1

[4] = compound: CCc1c2c(nc3ccc(OC(=O)N4CCC(N5CCCCC5)CC4)cc13)-c1cc3c(c(=O)n1C2)COC(=O)[C@]3(O)CC [Irinotecan] + O=C(c1cc(Cc2n[nH]c(=O)c3ccccc23)ccc1F)N1CCN(C(=O)C2CC2)CC1 [Olaparib] (partner 8 µM)
How it was run: as §1

Cell Line | relative viability ([1]; first compound 0.6325 µM) | relative viability ([1]; first compound 2 µM) | relative viability ([1]; first compound 6.325 µM) | relative viability ([1]; first compound 20 µM) | relative viability ([2]; first compound 0.02 µM) | relative viability ([2]; first compound 0.06325 µM) | relative viability ([2]; first compound 0.2 µM) | relative viability ([2]; first compound 0.6325 µM) | relative viability ([2]; first compound 2 µM) | relative viability ([3]; first compound 0.1 µM) | relative viability ([3]; first compound 0.3162 µM) | relative viability ([3]; first compound 1 µM) | relative viability ([3]; first compound 3.162 µM) | relative viability ([3]; first compound 10 µM) | relative viability ([4]; first compound 0.6325 µM) | relative viability ([4]; first compound 2 µM) | relative viability ([4]; first compound 6.325 µM) | relative viability ([4]; first compound 20 µM)
NCI-H1623 | 0.548 | 0.696 | 0.233 | 0.219 | 0.578 | 0.538 | 0.618 | 0.507 | 0.619 |  |  |  |  |  |  |  |  | 
NCI-H23 | 0.586 | 0.647 | 0.221 | 0.252 | 0.795 | 0.81 | 0.715 | 0.857 | 0.814 | 0.464 | 0.515 | 0.548 | 0.568 | 0.47 | 0.245 | 0.254 | 0.207 | 0.2
COR-L 105 | 0.505 | 0.682 | 0.41 | 0.182 | 0.523 | 0.395 | 0.463 | 0.499 | 0.476 | 0.39 | 0.367 | 0.433 | 0.395 | 0.363 | 0.644 | 0.513 | 0.552 | 0.425
LOU-NH91 | 0.617 | 0.639 | 0.377 | 0.391 | 0.716 | 0.473 | 0.717 | 0.715 | 0.768 | 0.523 | 0.515 | 0.552 | 0.496 | 0.518 | 0.712 | 0.477 | 0.321 | 0.153
NCI-H650 | 0.36 | 0.409 | 0.239 | 0.248 | 0.441 | 0.445 | 0.464 | 0.437 | 0.47 | 0.344 | 0.312 |  | 0.338 | 0.337 | 0.181 | 0.199 | 0.185 | 0.198

— the supplement of paper PMC10307832
